Assay results reported in US20200062773A1, “4,4a,5,7-TETRAHYDRO-3H-FURO[3,4-b]PYRIDINYL COMPOUNDS” (Janssen Pharmaceutlca NV, priority 2016, published 2020).

Tests used:
[1] = molecular target: T1, BACE2 (Homo sapiens, UniProt Q9Y5Z0); assay: BACE2 biochemical FRET based assay; conditions: recombinant BACE2, 450 minutes at room temperature, pH 5.0; for IC50: read-out: Biochemical FRET based assay pIC50 (converted)
T1 construct: recombinant BACE2 protein in a final concentration of 0.4 μg/ml
T1 sequence (Q9Y5Z0 63-518): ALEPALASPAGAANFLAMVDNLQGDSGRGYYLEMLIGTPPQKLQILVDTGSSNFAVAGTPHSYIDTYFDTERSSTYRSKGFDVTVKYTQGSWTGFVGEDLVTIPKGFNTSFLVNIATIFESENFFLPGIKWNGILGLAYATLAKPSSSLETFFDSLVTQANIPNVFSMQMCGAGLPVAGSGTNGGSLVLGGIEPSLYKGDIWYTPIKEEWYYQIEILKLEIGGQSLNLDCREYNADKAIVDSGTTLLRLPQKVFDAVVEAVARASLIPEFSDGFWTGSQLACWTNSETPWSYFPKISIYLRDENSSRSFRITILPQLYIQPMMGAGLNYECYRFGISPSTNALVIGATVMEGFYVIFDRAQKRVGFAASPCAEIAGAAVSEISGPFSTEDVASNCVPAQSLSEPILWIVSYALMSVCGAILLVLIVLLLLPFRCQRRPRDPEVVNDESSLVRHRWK
From the text: BACE2 Biochemical FRET Based Assay
(§1) This assay is a Fluorescence Resonance Energy Transfer Assay (FRET) based assay. The substrate for this assay contains the ‘Swedish’ Lys-Met/Asn-Leu mutation of the amyloid precursor protein (APP) beta-site APP-cleaving enzyme cleavage site. This substrate also contains two fluorophores: (7-methoxycoumarin-4-yl) acetic acid (Mca) is a fluorescent donor with excitation wavelength at 320 nm and emission at 405 nm and 2,4-Dinitrophenyl (Dnp) is a proprietary quencher acceptor. […] Upon cleavage by the beta-site APP-cleaving enzyme, the fluorophore Mca is separated from the quenching group Dnp, restoring the full fluorescence yield of the donor. The increase in fluorescence is linearly related to the rate of proteolysis.
Briefly in a 384-well format recombinant BACE2 protein in a final concentration of 0.4 μg/ml is incubated for 450 minutes at room temperature with 10 μM substrate in incubation buffer (50 mM Citrate buffer pH 5.0, 0.05% PEG, no DMSO) in the absence or presence of compound. Next the amount of proteolysis is directly measured by fluorescence measurement at T=0 and T=450 (excitation at 320 nm and emission at 405 nm). Results are expressed in RFU (Relative Fluorescence Units), as difference between T450 and T0.
(§2) A best-fit curve is fitted by a minimum sum of squares method to the plot of % Controlmin versus compound concentration. From this an IC50 value (inhibitory concentration causing 50% inhibition of activity) can be obtained.

[2] = system: Abeta 1-42 produced and secreted into the medium of human neuroblastoma SKNBE2 cells; assay: Cellular αLisa assay in SKNBE2 cells; type: cell-based; conditions: human neuroblastoma SKNBE2 cells expressing hAPP695, 18 hours incubation; for IC50: Homo sapiens, SKNBE2, 18 h, read-out: Cellular αLisa assay in SKNBE2 cells Abeta 42 pIC50 (converted)
Protocol: Cellular αLisa Assay in SKNBE2 Cells
In two αLisa assays the levels of Abeta 1-42 produced and secreted into the medium of human neuroblastoma SKNBE2 cells are quantified. The assay is based on the human neuroblastoma SKNBE2 expressing the wild type Amyloid Precursor Protein (hAPP695). The compounds are diluted and added to these cells, incubated for 18 hours and then measurements of Abeta 1-42 are taken. Abeta 1-42 are measured by sandwich αLisa. αLisa is a sandwich assay using biotinylated antibody AbN/25 attached to streptavidin coated beads and antibody cAb42/26 conjugated acceptor beads for the detection of Abeta 1-42 respectively. In the presence of Abeta 1-42, the beads come into close proximity. The excitation of the donor beads provokes the release of singlet oxygen molecules that trigger a cascade of energy transfer in the acceptor beads, resulting in light emission. Light emission is measured after 1 hour incubation (excitation at […] and emission at 615 nm).
as §2

[3] = molecular target: T2, BACE1 (Homo sapiens, UniProt P56817); assay: BACE1 biochemical FRET based assay; conditions: Method 1: recombinant BACE1 1 μg/ml, 120 min at room temperature, pH 5.0; for IC50: read-out: Biochemical FRET based assay pIC50 (converted)
T2 construct: recombinant BACE1 protein in a final concentration of 1 μg/ml
From the text: BACE1 Biochemical Fret Based Assay
as §1, with “this assay is an APP derived 13 amino acids peptide that contains the” for “this assay contains the”, “cleavage by BACE1, the fluorophore” for “cleavage by the beta-site APP-cleaving enzyme, the fluorophore”
Briefly in a 384-well format recombinant BACE1 protein in a final concentration of 1 μg/ml is incubated for 120 minutes at room temperature with 10 μm substrate in incubation buffer (40 mM Citrate buffer pH 5.0, 0.04% PEG, 4% DMSO) in the absence or presence of compound. Next the amount of proteolysis is directly measured by fluorescence measurement at T=0 and T=120 (excitation at 320 nm and emission at 405 nm). Results are expressed in RFU (Relative Fluorescence Units), as difference between T120 and T0.
as §2

T2 sequence (P56817 46-501): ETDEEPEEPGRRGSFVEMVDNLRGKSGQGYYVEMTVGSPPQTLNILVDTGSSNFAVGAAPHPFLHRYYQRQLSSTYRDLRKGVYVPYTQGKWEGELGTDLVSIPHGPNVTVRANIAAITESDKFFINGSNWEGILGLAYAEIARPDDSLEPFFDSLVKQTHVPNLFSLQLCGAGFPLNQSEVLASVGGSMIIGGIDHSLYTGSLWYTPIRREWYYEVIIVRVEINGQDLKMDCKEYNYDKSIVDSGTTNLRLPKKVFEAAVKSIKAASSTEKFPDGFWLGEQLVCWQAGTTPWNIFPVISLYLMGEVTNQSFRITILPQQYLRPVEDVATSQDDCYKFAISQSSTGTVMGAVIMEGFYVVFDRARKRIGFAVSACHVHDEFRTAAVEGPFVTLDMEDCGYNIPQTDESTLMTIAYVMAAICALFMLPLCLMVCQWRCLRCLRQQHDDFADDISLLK

SMILES | IC50 [1] | IC50 [2] | IC50 [3] | Cellular αLisa assay in SKNBE2 cells Abeta 42 pIC50 [2] | Biochemical FRET based assay pIC50 [1] | Biochemical FRET based assay pIC50 [3]
COc1cc(C(=O)Nc2ccc(F)c([C@]34CO[C@H](C(C)(F)F)[C@H]3C[C@@](C)(C#N)C(N)=N4)c2)ncn1 [18a] | 1200 nM | 138 nM | 24.5 nM | – | – | –
COc1cnc(C(=O)Nc2ccc(F)c([C@@]34CO[C@@H](C)[C@@H]3C[C@](C)(S(C)(=O)=O)C(N)=N4)c2)cn1 (single isomer, unassigned) [13c] | – | – | – | 6.21 | 5.41 | 6.05
CC1(C#N)CC2C(C(F)(F)F)OCC2(c2cc(NC(=O)c3cnc(-n4cncn4)cn3)ccc2F)N=C1N (single isomer, unassigned) [34b] | > 10000 nM | – | 1020 nM | 5.31 | – | –
CC1OCC2(c3cc(NC(=O)c4cnc(-n5cncn5)cn4)cc(F)c3F)N=C(N)C(C)(C#N)CC12 (single isomer, unassigned) [32a] | 347 nM | – | 19.1 nM | 7.51 | – | –
C[C@@H]1OC[C@@]2(c3cc(NC(=O)c4ccc(C#N)cn4)ccc3F)N=C(N)[C@@](C)(C#N)C[C@@H]12 [4c] | – | – | – | 6.22 | 5.27 | 6.28
C[C@]1(C#N)C[C@H]2[C@H](C(F)(F)F)OC[C@@]2(c2cc(NC(=O)c3ccc(C#N)cn3)ccc2F)N=C1N [3d] | – | – | – | <5.05 | <5 | 5.02
Cl.NC1=N[C@@]2(c3cc(NC(=O)c4ccc(F)cn4)ccc3F)CO[C@H](C(F)(F)F)[C@H]2CC1 [12c] | – | – | – | 8.13 | 7.26 | 7.95
CC(F)(F)[C@H]1OC[C@]2(c3cc(NC(=O)c4cnc(-n5cncn5)cn4)ccc3F)N=C(N)[C@](C)(C#N)C[C@H]12 [16a] | 363 nM | 16.6 nM | 4.9 nM | – | – | –
C[C@]1(C#N)C[C@H]2[C@H](C(F)(F)F)OC[C@@]2(c2cc(NC(=O)c3ccc(F)cn3)ccc2F)N=C1N [2d] | – | – | – | <5.05 | <5 | 5
C[C@@]1(C#N)C[C@H]2[C@H](C(F)(F)F)OC[C@@]2(c2cc(NC(=O)c3ccc(F)cn3)ccc2F)N=C1N [2e] | – | – | – | <5.05 | <5 | <5
N#Cc1ccc(C(=O)Nc2ccc(F)c([C@]34CO[C@H](C(F)(F)F)[C@H]3CCC(N)=N4)c2)nc1 [11a] | – | – | – | 8.58 | 6.88 | 8.53
CC1OCC2(c3cc(NC(=O)c4cnc(-n5cncn5)cn4)cc(F)c3F)N=C(N)C(C)(C#N)CC12 (single isomer, unassigned) [32b] | 9550 nM | – | 309 nM | 5.97 | – | –
C[C@]1(C#N)C[C@@H]2[C@@H](C(F)(F)F)OC[C@]2(c2cc(NC(=O)c3ccc(F)cn3)ccc2F)N=C1N [2f] | – | – | – | 7.47 | 7.35 | 7.83
COc1cnc(C(=O)Nc2ccc(F)c([C@]34CO[C@H](C)[C@H]3C[C@@](C)(S(C)(=O)=O)C(N)=N4)c2)cn1 (single isomer, unassigned) [13a] | – | – | – | 7.19 | 5.9 | 7

The next lines start with the values.

IC50 [1] | IC50 [2] | IC50 [3] | Cellular αLisa assay in SKNBE2 cells Abeta 42 pIC50 [2] | Biochemical FRET based assay pIC50 [1] | Biochemical FRET based assay pIC50 [3] | SMILES
158 nM | – | 15.5 nM | 7.57 | – | – | CC1OCC2(c3cc(NC(=O)c4cnc(OCF)cn4)cc(F)c3F)N=C(N)C(C)(C#N)CC12 (single isomer, unassigned) [31c]
– | – | – | 5.29 | <5 | 5.01 | C[C@@H]1OC[C@@]2(c3cc(NC(=O)c4ccc(F)cn4)ccc3F)N=C(N)[C@@](C)(C#N)C[C@@H]12 (single isomer, unassigned) [10c]
263 nM | – | 6.31 nM | 7.57 | – | – | CC1(C#N)CC2C(C(F)(F)F)OCC2(c2cc(NC(=O)c3cnc(-n4cncn4)cn3)ccc2F)N=C1N (single isomer, unassigned) [34a]
83.2 nM | – | 5.62 nM | 8.32 | – | – | CC1OCC2(c3cc(NC(=O)c4ccc(OC(F)F)cn4)ccc3F)N=C(N)C(C)(C#N)CC12 (single isomer, unassigned) [35a]
– | – | – | 7.46 | 6.17 | 7.06 | COc1cnc(C(=O)Nc2ccc(F)c([C@]34CO[C@H](C)[C@H]3C[C@](C)(C#N)C(N)=N4)c2)cn1 [5b]
> 10000 nM | – | > 10000 nM | <5.05 | – | – | CC1OCC2(c3cc(NC(=O)c4cnc(OCF)cn4)cc(F)c3F)N=C(N)C(C)(C#N)CC12 (single isomer, unassigned) [31d]
85.1 nM | 10 nM | 6.76 nM | – | – | – | CC1OCC2(c3cc(NC(=O)c4ccc(OC(F)F)cn4)ccc3F)N=C(N)C(C)(C#N)CC12 (stereo not drawn) [compound 35]
891 nM | – | 52.5 nM | 7.13 | – | – | CC1(C#N)CC2C(C(F)F)OCC2(c2cc(NC(=O)c3cnc(OCF)cn3)ccc2F)N=C1N (single isomer, unassigned) [25b]
105 nM | 31.6 nM | 9.77 nM | – | – | – | C[C@@]1(C#N)C[C@@H]2[C@@H](C(F)F)OC[C@]2(c2cc(NC(=O)c3cnc(-n4cncn4)cn3)ccc2F)N=C1N [26a]
– | – | – | 5.32 | <5 | 5.97 | C[C@]1(C#N)C[C@H]2[C@H](C(F)(F)F)OC[C@@]2(c2cc(NC(=O)c3cnc(OCF)cn3)ccc2F)N=C1N [7c]
355 nM | 25.7 nM | 12.3 nM | – | – | – | C[C@@]1(C#N)C[C@@H]2[C@@H](CF)OC[C@]2(c2cc(NC(=O)c3cnc(-n4cncn4)cn3)ccc2F)N=C1N [23a]
141 nM | – | 8.91 nM | 7.74 | – | – | CC1(C#N)CC2C(C(F)F)OCC2(c2cc(NC(=O)c3cnc(OCF)cn3)ccc2F)N=C1N (single isomer, unassigned) [25a]
